{"source": "patent US20220175798A1", "about": "“COMPOSITIONS COMPRISING OXYGENATED CHOLESTEROL SULFATE AND AT LEAST ONE OF POLYALKYLENE GLYCOL, CARBOXYMETHYL CELLULOSE AND POLYOXYLGLYCERIDE” (Durect Corporation, priority 2016, published 2022)", "key": {"[1]": {"assay": "Oral pharmacokinetics in HFD-fed Golden Syrian hamsters", "assay_type": "in vivo", "text": "(§1) The subjects for the study were 40 Golden Syrian male hamsters. Two cohorts were provided with either regular diet (RD) or high fat diet (HFD) for 10 weeks. 25HC3 S treatment was initiated at the start of Week 11. Group 1 remained on a regular diet while HFD-fed hamsters were randomly divided into three treatment groups (Groups 2-4; Table 20).\n(§2) The Vehicle was a solution of 0.5% (w/v) CMC and 0.05% (v/v) Tween-80 in water. Powdered 25HC3 S was constituted into the vehicle solution to result in drug concentrations of 2.5 and 10 mg/mL. The suspensions were homogenized for approximately 5 minutes being combined, with 10 second breaks every 30-40 seconds and swirled before dosing to maintain homogeneity. The formulated test article was prepared weekly and kept at room temperature.\n(§3) Hamsters were treated with 25HC3 S by daily oral gavage for 6 weeks while maintained on RD or HFD. Each hamster received daily doses of 25HC3S or vehicle by oral gavage (N=10/group). There were two dose groups (Groups 3 and 4): 10 and 50 mg/kg, as specified in Table 20, with dose volumes of 4 and 5 mL/kg, respectively.\nFor pharmacokinetic (PK) analysis, blood was collected following the first 25HC3S dose. Whole blood samples were collected via the jugular vein at pre-dose, 0.5, 2, 4, 8, 12 hours (h) post dose from each hamster; however, the last blood collection may have been collected by terminal cardiac puncture with the animals deeply anesthetized by isoflurane. Blood samples were placed into tubes containing K2EDTA. The blood was gently mixed to assure distribution of the anti-coagulant and the resulting plasma samples underwent analyses to quantify 25HC3S levels."}, "[2]": {"assay": "Ease of dispersion: appearance of suspension and sedimentation (visual inspection)", "assay_type": "physicochemical", "settings": "25 mg/mL in Vehicle PEG 3350 (without L-Methionine)", "description": "Two lots of 25HC3S sodium salt (Lot #A and Lot #B) were used. Lot #B was delumped through a 20 mesh screen. The drug substance was either used directly or further jet-milled, prior to the preparation of suspensions for the studies. A third lot of 25HC3 S sodium salt (Lot #C) was jet-milled first and then used directly or further passed through a 20 mesh screen prior to the studies. More than 10 vehicles were screened. Four mixing methods were evaluated: manual shaking (Mixing Method 1), manual shaking followed by sonication (Mixing Method 2) and homogenization with a sonic probe (Mixing Method 3) as well as mechanical shaking horizontally in a flat bed shaker (Mixing Method 4). Studies #1 to 13 combined vehicle screening, mixing methods and syringeability evaluation. The effect of drug concentrations on the syringeability was evaluated (Studies #10 and 11).\nWeigh approximately 10 to 100 mg each of 25HC3S into 2 mL vials. Add to each vial, 1 mL of vehicle. A total of 3 mixing methods were used to prepare the suspensions. Mixing Method 1: Each vial was manually shaken for 15 to 45 times. The suspension was inspected visually for sedimentation after stored at room temperature (RT) for one minute. […] Mixing Method 2: Each vial was manually shaken 30 times followed by sonication for 3 or 6 minutes for syringeability study. […]"}, "[3]": {"test_system": "bile duct ligation cholestasis", "assay": "Bile duct ligated (BDL) rat model of cholestasis", "assay_type": "in vivo, CD1 rats", "description": "The subjects for the study were CD1 male rats (8 weeks of age, 200-225 g). Rats underwent BDL surgery, where the extrahepatic biliary tract was tightly ligated twice with sutures, then cut between the two ligations. A sham group (N=5/group) was also included in a subset of the studies described. […] The Vehicle was a solution of 0.5% (w/v) CMC and 0.05% (v/v) Tween-80 in water. Powdered 25HC3 S was constituted into the Vehicle solution to result in drug concentrations of 0.833 to 5 mg/mL. The suspensions were homogenized for approximately 5 minutes being combined, with 10 second breaks every 30-40 seconds and swirled before dosing to maintain homogeneity. The formulated test article was prepared weekly and kept at room temperature. […] were divided into treatment groups (N=8-10/group) and dosed daily or every 3 days for 9 days by oral gavage. 5, 10, 30 or 60 mg/kg 25HC3S or Vehicle was given starting one day (Day 1) after BDL surgery. On Day 10, serum was collected after an overnight fast and measured for serum biochemistry."}, "[4]": {"test_system": "high fat diet (HFD)-fed hamsters", "assay": "Pharmacodynamic study in HFD-fed Golden Syrian hamsters (serum chemistry, hepatic lipids, histopathology)", "assay_type": "in vivo", "text": "as §1, §2, §3\nFor pharmacodynamic measures of efficacy, clinical chemistry parameters were measured by collection of fasting serum throughout the study to assess the effects of HFD and 25HC3S treatment compared to animals on a RD and given the vehicle control.\nAssessments included, but were not limited to, assessment of activity, posture, respiration, emesis, seizure, hydration status, injection site assessment and overall body condition. At the end of the in-life portion of the study (Week 16), all animals were sacrificed and livers collected for biochemical and histopathology analyses."}, "[5]": {"settings": "daily oral 10 or 30 mg/kg (follow-up study)"}, "[6]": {"settings": "HFD-fed hamsters, Group 3, 10 mg/kg daily oral gavage 6 weeks"}, "[7]": {"settings": "HFD-fed hamsters, Group 4, 50 mg/kg daily oral gavage 6 weeks"}}, "data": [{"smiles": "C[C@H](CCCC(C)(C)O)[C@H]1CC[C@H]2[C@@H]3CC=C4C[C@@H](OS(=O)(=O)[O-])CC[C@]4(C)[C@H]3CC[C@]12C.[Na+]", "note": "[Formulation 25HC3S, 5-cholesten-3, 25-diol, 3-sulfate]", "values": [{"measurement": "dose-normalized AUC", "setting": "[1]; 10 mg/kg oral", "result": 195, "unit": "ng·h/mL/mg"}, {"measurement": "normalized Cmax", "setting": "[1]; 10 mg/kg oral", "result": 32.2, "unit": "ng/mL/mg"}, {"measurement": "normalized Cmax", "setting": "[1]; 50 mg/kg oral", "result": "only half of the 10 mg/kg dose"}, {"measurement": "mean half-life", "setting": "[1]; first oral dose", "result": 3, "unit": "h"}, {"measurement": "time of mean maximum plasma concentration", "setting": "[1]; first oral dose, both doses (10 and 50 mg/kg)", "result": 0.5, "unit": "h"}, {"measurement": "dispersion", "setting": "[2]; flat bed shaker 100 rpm up to 50 minutes (Study #12)", "result": "did not disperse well"}, {"measurement": "dispersion", "setting": "[2]; flat bed shaker 200 rpm up to 45 minutes (Study #13)", "result": "dispersed well"}, {"measurement": "body weight and other serum chemistry measures", "setting": "[3]; daily oral 5 mg/kg", "result": "little or no differences"}, {"measurement": "Body temperature on Day 9", "setting": "[3]; daily oral 5 mg/kg, vs Vehicle", "result": "significantly improved"}, {"measurement": "spleen-to-body weight ratio", "setting": "[3]; daily oral 5 mg/kg, vs Vehicle", "result": "significantly improved"}, {"measurement": "body weight gain after surgery", "setting": "[3]; daily oral 30 mg/kg (pilot study)", "result": "significantly improved"}, {"measurement": "body weight gain after surgery", "setting": "[3]; daily oral 60 mg/kg (pilot study)", "result": "modest increases"}, {"measurement": "liver histological analyses", "setting": "[3]; [5]", "result": "no differences"}, {"measurement": "serum liver enzymes", "setting": "[3]; [5]", "result": "trends of decrease"}, {"measurement": "Serum total, direct and indirect bilirubin levels", "setting": "[3]; daily oral 10 or 30 mg/kg, vs Vehicle (follow-up study)", "result": "significantly reduced"}, {"measurement": "serum biochemistry analytes, including serum bilirubin", "setting": "[3]; daily oral 30 or 60 mg/kg (pilot study)", "result": "No significant differences"}, {"measurement": "body weight, organ-to-bodyweight ratios or serum clinical chemistry", "setting": "[3]; oral every three days (Days 1, 4, 7), 10 or 30 mg/kg", "result": "no significant differences"}, {"measurement": "hepatic cholesterol levels", "setting": "[4]; 10 mg/kg, 6 weeks", "result": "no effect"}, {"measurement": "hepatic cholesterol levels", "setting": "[4]; 50 mg/kg (Group 4), 6 weeks", "result": "significantly reduced"}, {"measurement": "reduction in serum cholesterol levels", "setting": "[4]; 50 mg/kg (Group 4), 6 weeks of treatment (Week 16), not statistically significant", "result": "15-18%"}, {"measurement": "HFD-related liver weight gain", "setting": "[4]; 6 weeks of treatment", "result": "no statistically significant effect"}, {"measurement": "HDL and LDL cholesterol", "setting": "[4]; 6 weeks of treatment, HFD-fed hamsters", "result": "reduced both HDL and LDL cholesterol in a dose-dependent fashion"}, {"measurement": "ALT and AST levels", "setting": "[4]; 6 weeks of treatment, compared to vehicle", "result": "reduced both ALT and AST levels"}, {"measurement": "incidence of “normal-appearing” livers at gross necropsy", "setting": "[4]; Group 4 (50 mg/kg)", "result": 22, "unit": "%"}, {"measurement": "Hepatic Free Fatty Acids", "setting": "[4]; [6]", "result": "7.3 (±0.6) Meg/mg protein"}, {"measurement": "Hepatic Total Cholesterol", "setting": "[4]; [6]", "result": "155.5 (±37.9) μg/mg protein"}, {"measurement": "Hepatic Triglyceride", "setting": "[4]; [6]", "result": "66.1 (±23.3) μg/mg protein"}, {"measurement": "Hepatic Free Fatty Acids", "setting": "[4]; [7]", "result": "6.6 (±1.4) Meg/mg protein"}, {"measurement": "Hepatic Triglyceride", "setting": "[4]; [7]", "result": "46.4 (±15.6) μg/mg protein"}, {"measurement": "Hepatic Total Cholesterol", "setting": "[4]; HFD-fed hamsters, Group 4, 50 mg/kg daily oral gavage 6 weeks, p < 0.05 compared to Group 2", "result": "75.2 (±45.7) μg/mg protein"}, {"measurement": "clinical signs", "setting": "[4]; PO daily for 6 weeks, hamsters", "result": "did not result in any notable clinical signs"}, {"measurement": "liver histopathology (H&E and Oil Red O)", "setting": "[4]; dose-dependent, compared to HFD-fed control (Group 2)", "result": "considerably less microvesicular changes, reduced Oil Red 0 staining, and milder inflammation"}, {"measurement": "serum triglyceride levels", "setting": "[4]; treated groups vs vehicle across 6 weeks, not statistically significant", "result": "trending higher"}, {"measurement": "hepatic triglyceride levels", "setting": "[4]; with increasing dosage, 6 weeks, did not reach statistical significance", "result": "Reduced"}]}]}
